Measurements as given in patent US20210301349A1, “COMPOSITIONS AND METHODS FOR TREATING A TUMOR SUPPRESSOR DEFICIENT CANCER” (BETH ISRAEL DEACONESS MEDICAL CENTER, INC., priority 2016, published 2021).

Tests used:
Assay type in all cases: in vivo, mouse
[1] = test system: Pten^pc−/−; Zbtb7a^pc−/− tumors (anterior prostate lobes); assay: Histological analysis of treated Pten^pc−/−; Zbtb7a^pc−/− tumors; settings: Zbtb7a^pc−/− mice, 10 days of i.p. treatment, versus vehicle or control IgG
Procedure: (§1) Mice were allocated at random to experimental groups and studies were performed in an unblended manner. For treatment with the CXCR2 antagonist, SB225002 (Cayman Chemical #13336) was dissolved in DMSO (10 mg/ml) and diluted in vehicle (0.9% NaCl, 0.3% Tween 80) for in vivo administration. Mice (4 months of age) were treated daily for 10 days by intraperitoneal injection (5 mg/kg) and prostate tumor tissue (anterior lobes) was subjected to Flow Cytometry and histological analysis. For MRI analysis, mice (4 months of age) were treated daily for 21 days (Pten^pc−/−; Zbtb7a^pc−/−), for 14 days (Pten^pc−/−; Trp53^pc−/−) or for 14 days (Pten^pc−/−; Pml^pc−/−) by intraperitoneal injection (5 mg/kg). […] Tumor volume quantification was performed by using VivoQuant and Image J software. […]
(§2) For western blotting, cell lysates were prepared by homogenizing tumor tissue with NP40 Buffer (Boston Bioproducts) supplemented with protease (Roche) and HALT phosphatase inhibitor cocktails (Thermo Scientific) and subsequently subjected to SDS-Gel separation (Invitrogen) and western blotting. […] Western blots were quantified using Image J software. […] Embedding and hematoxylin and eosin staining of sections were performed by the Histology Core at BIDMC and analyzed by a pathologist. […]

[2] = test system: Pten^pc−/−; Trp53^pc−/− tumors (anterior prostate lobes); assay: Histological analysis of treated Pten^pc−/−; Trp53^pc−/− tumors; settings: Trp53^pc−/− mice, 10 days of i.p. treatment, versus vehicle
Procedure: as §1, §2

[3] = test system: NFκB signaling; assay: Western blot and expression analysis of Pten^pc−/−; Zbtb7a^pc−/− tumors treated with CXCR2 antagonist; settings: versus vehicle
Procedure: as §1, §2

O=C(Nc1ccc([N+](=O)[O-])cc1O)Nc1ccccc1Br [SB225002] was tested. Which “tumor burden by histological analysis” value [1] did it give?
The value was “reduced tumor burden”.

And the “tumor burden by histological analysis” value ([1]; listed as CXCR2 inhibitor)?
Its value is “significantly diminished tumor involvement”.

And the “tumor burden by histological analysis” value [2]?
Its value is “reduced tumor burden”.

What about the “tumor burden by histological analysis” value ([2]; listed as CXCR2 inhibitor) of the same compound?
The value was “significantly diminished tumor involvement”.

What about the “expression of CXCL5” value ([3]; Pten^pc−/−, Zbtb7a^pc−/− prostate tumors) of the same compound?
The value was “elevated expression of CXCL5”.

What about the “IκBα protein level (normalized with β-actin)” value ([3]; western blot of Pten^pc−/−, Zbtb7a^pc−/− tumors) of the same compound?
Its value is “increased IκBα protein levels”.
